Results from paper PMC12372887, “Mechanism and cellular actions of the potent AMPK inhibitor BAY-3827” (Science Advances, 2025).

Legend:
[1] = tested on: pSer79-ACC1 in U2OS cells; assay: HTRF assay of Ser79-ACC1 phosphorylation in U2OS cells; assay type: cell-based, human; settings: for IC50: Homo sapiens, U2OS
Experimental: Human osteosarcoma U2OS WT cells were obtained from John Rouse (MRC Protein Phosphorylation and Ubiquitylation Unit, University of Dundee) and were cultured in DMEM high glucose + GlutaMAX Supplement, pyruvate (Thermo Fisher Scientific, catalog no. 31966-021) containing penicillin G (100 U/ml), streptomycin (100 μg/ml), and 10% (v/v) FBS seeding with 50,000 cells per well in a 50-μl volume in culture 96-well cell culture plates (Corning Incorporated costar, #3599). The next day, the media were changed to 50 μl of serum-free media, and 50 μl of serum-free media containing BAY-3827 or BAY-974 was dispensed and left to incubate at 37°C for 30 min. […] HTRF assays using either phospho-Ser^79-ACC1 kit (Revvity, #64ACCPEG) or phospho-Thr^172-AMPK kit (Revvity, #64AMPKPEG) were performed in triplicate in HTRF 96-well low volume white plates (Revvity, #66PL96001) following manufacturer’s instructions. Sealed plates incubated overnight in darkness conditions were scanned at room temperature in Multimode Plate Reader EnVision (PerkinElmer) machine following HTRF setup recommendations for EnVision (Revvity), equipped with a top mirror LANCE/DELFIA single mirror (#412), a UV2 (TRF) 320 excitation filter (#111), emission filter APC 665 (#205), and second emission filter Europium 615 (#203), with a 2000-μs cycle and 60-μs delay, with the number of flashes set to 100 as well as for the 2nd detector. Results were viewed in EnVision Manager software (version 1.13.3009.1401) where 665/615 ratios were calculated, and data were normalized to control condition as %. All assay ratios between control lysate signal/nonspecific signal were greater than 2 as expected of a successful assay following the manufacturer’s instructions. Data were visualized in GraphPad Prism v10.

ULK1 = target: T1, ULK1 (Homo sapiens, UniProt O75385); assay: Cell-free ULK1 kinase assay (S108tide); assay type: biochemical; settings: increasing concentrations, 0 to 1 μM
T1 sequence (O75385 1-1050): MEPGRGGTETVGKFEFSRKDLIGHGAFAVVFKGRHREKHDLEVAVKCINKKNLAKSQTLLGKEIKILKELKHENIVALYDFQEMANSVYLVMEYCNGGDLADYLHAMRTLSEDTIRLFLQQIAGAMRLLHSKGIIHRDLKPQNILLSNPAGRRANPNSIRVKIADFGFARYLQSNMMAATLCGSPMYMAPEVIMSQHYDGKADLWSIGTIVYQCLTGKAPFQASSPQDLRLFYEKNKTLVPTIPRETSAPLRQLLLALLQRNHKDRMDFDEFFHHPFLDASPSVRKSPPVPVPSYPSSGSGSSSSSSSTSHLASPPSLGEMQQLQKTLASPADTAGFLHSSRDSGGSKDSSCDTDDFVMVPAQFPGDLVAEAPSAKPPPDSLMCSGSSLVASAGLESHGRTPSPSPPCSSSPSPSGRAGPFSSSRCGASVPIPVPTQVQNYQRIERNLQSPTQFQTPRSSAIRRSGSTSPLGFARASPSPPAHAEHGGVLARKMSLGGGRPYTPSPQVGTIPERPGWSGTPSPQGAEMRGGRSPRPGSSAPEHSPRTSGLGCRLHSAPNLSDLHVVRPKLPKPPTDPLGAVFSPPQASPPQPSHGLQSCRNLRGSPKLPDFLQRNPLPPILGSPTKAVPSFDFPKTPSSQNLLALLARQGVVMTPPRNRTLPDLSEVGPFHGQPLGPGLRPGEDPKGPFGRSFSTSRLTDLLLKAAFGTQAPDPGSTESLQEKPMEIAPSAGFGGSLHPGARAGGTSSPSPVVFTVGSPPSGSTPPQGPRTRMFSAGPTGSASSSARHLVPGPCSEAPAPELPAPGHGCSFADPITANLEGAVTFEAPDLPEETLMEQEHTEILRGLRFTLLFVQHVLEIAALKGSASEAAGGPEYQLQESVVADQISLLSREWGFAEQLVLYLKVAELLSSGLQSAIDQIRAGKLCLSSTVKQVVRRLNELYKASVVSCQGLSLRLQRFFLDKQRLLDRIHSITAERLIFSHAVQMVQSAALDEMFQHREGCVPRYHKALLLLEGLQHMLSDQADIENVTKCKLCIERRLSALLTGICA
Experimental: Heterotrimeric human AMPK FLAG- α1β1γ1, FLAG- α2β1γ1, and FLAG- α2β2γ1, as well as human FLAG-CaMKK2 and FLAG-ULK1, were produced in mammalian HEK293 cells as described ([66], [67]). For AMPK expression, the cells were triply transfected at 60% confluency using FuGene HD (Roche Applied Science) and 1 μg of pcDNA3 plasmid expression constructs for AMPK Flag-α1, β1-Myc, β2-Myc, and HA-γ1. For CaMKK2 expression, the cells were transfected with 1 μg of pcDNA3 Flag-CaMKK2 plasmid. For ULK1 expression, the cells were transfected with […] of pcDNA3 FLAG-ULK1 plasmid. After 48 hours, the transfected cells were harvested by rinsing with ice-cold PBS, followed by rapid lysis using 500 μl of lysis buffer. AMPK, CaMKK2, and ULK1 kinase activities were determined by phosphorylation of synthetic peptide substrates: SAMS (HMRSAMSGLHLVKRR), CaMKKtide ([…]), and S108tide. (KLPLTRSHNNFVARRR), respectively. Briefly, recombinant AMPK, CaMKK2, or ULK1 were immunoprecipitated from 10 μg of transfected cultured cell lysate using 10 μl of anti-FLAG M2 agarose beads [50% (v/v)] […] Radioactivity was quantified by liquid scintillation counting. […]

Structure (SMILES) | IC50 ([1]; + MK-8722 (10 μM)) | IC50 ([1]; without MK-8722) | inhibitory effect on kinase activity (ULK1) | inhibition of ACC1 phosphorylation ([1]; up to highest tested concentration of 100 μM)
CCc1ccccc1C(=O)Nc1n[nH]c2c(C)c(F)c(C3C(C#N)=C(C)N(C)C(C)=C3C#N)cc12 [BAY-3827, N-[5-(3,5-dicyano-1,2,6-trimethyl-4H-pyridin-4-yl)-6-fluoro-7-methyl-1H-indazol-3-yl]-2-ethylbenzamide] | 6.36 µM | 0.93 µM | no inhibitory effect | –
CC1=C(C#N)C(c2ccc3c(c2)c(NC(=O)c2ccccc2C)nn3C)C(C#N)=C(C)N1 [BAY-974, N-[5-(3,5-dicyano-2,6-dimethyl-1,4-dihydropyridin-4-yl)-1-methylindazol-3-yl]-2-methylbenzamide] | – | – | no inhibitory effect | No inhibition
